Measured values published in patent US12384770B2, “Heterocyclic compound” (Takeda Pharmaceutical Company Limited, priority 2019, dated 2025).

Molecular target: T1, HDAC6 enzyme (Homo sapiens, UniProt Q9UBN7)
T1 construct: HDAC6 enzyme prepared by transducing full length HDAC6 gene into Sf-9 insect cells; GST; purchased SignalChem; host or cells: Sf-9 insect cells
T1 sequence (Q9UBN7 1-1215): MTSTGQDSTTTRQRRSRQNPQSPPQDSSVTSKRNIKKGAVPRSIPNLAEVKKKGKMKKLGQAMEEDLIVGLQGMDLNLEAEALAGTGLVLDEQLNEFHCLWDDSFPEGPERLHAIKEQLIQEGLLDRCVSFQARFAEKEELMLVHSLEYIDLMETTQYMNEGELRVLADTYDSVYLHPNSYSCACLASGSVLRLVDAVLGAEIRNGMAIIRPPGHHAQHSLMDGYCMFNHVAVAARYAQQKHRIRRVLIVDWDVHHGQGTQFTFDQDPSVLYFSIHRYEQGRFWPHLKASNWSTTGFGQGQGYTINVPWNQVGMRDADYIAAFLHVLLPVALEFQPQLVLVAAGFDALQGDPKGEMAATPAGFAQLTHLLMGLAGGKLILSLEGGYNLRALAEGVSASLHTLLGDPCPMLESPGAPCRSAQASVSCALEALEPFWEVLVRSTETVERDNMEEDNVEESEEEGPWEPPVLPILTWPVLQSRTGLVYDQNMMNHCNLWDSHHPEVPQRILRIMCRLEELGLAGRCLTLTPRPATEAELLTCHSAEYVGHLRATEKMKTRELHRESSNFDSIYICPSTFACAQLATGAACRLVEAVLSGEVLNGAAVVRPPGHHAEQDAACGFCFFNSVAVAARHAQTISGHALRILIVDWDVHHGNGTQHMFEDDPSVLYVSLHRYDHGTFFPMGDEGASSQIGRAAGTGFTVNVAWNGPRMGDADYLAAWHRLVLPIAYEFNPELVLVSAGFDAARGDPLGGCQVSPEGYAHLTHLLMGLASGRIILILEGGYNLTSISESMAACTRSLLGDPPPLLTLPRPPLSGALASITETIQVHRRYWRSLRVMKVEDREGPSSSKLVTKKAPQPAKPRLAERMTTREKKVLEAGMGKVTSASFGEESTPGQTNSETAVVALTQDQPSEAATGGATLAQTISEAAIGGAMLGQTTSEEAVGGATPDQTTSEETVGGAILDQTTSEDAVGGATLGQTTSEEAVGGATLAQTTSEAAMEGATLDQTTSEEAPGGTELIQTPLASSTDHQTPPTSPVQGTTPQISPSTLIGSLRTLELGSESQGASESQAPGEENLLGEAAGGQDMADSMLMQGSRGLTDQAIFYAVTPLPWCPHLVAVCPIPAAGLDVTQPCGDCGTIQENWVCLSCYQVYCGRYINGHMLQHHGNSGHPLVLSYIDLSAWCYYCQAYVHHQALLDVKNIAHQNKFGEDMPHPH
Assay: HDAC6 enzyme inhibitory assay (HDAC-Glo I/II Assay kit)
Format: biochemical
Conditions: wells without enzyme = 100% inhibition, read-out: HDAC6 inhibitory rate (%) (10 μM)
Procedure: Experimental Example 1 HDAC6 Enzyme Inhibitory Assay
HDAC6 enzyme prepared by transducing full length HDAC6 gene into Sf-9 insect cells and purifying by GST affinity column were purchased from SignalChem. Using this enzyme, HDAC6 enzyme inhibitory activity of the compound of the present invention were evaluated. Enzymes were used after preserved at −70° C. HDAC6 enzyme inhibitory activity of the compound of the present invention was measured using HDAC-Glo™ I/II Assay kit (Promega) according to the following experimental method. The test compound diluted with assay buffer (24 mM Tris-HCl (pH 7.5), 1 mM MgCl2, 0.35 mM KCl, 135 mM NaCl, 0.6 mM Glutathione, 0.01% Tween-20) was added to a 384-well plate by each 2 μL. Then, HDAC6 enzyme solution diluted with assay buffer was added thereto by each 4 μL, and the plate was incubated at room temperature for 60 min. After incubated, HDAC substrate-Developer solution prepared according to Promega protocol attached to the assay kit was added to the 384-well plate by each 2 μL, and the enzyme reaction was started. After reacting at room temperature for 20 min, luminescence level was measured using plate reader Envision (PerkinElmer). The inhibitory activity of each compound of Example was calculated as a relative activity value when luminescence level in wells without enzyme is considered as 100% inhibition.

Compound | inhibition at 10 µM [%]
O=C1c2cc(-c3nnc(C(F)F)o3)ccc2CN1[C@H](c1ccccc1)[C@H](O)c1ccccc1F (racemic) [Example 139, 6-[5-(difluoromethyl)-1,3,4-oxadiazol-2-yl]-2-[(1RS,2RS)-2-(2-fluorophenyl)-2-hydroxy-1-phenylethyl]-2,3-dihydro-1H-isoindol-1-one] | 100
O=C1c2cc(-c3nnc(C(F)F)o3)ccc2CN1[C@H](c1ccc(F)cc1)[C@H](O)C1CC1 (racemic) [Example 140, 2-[(1RS,2RS)-2-cyclopropyl-1-(4-fluorophenyl)-2-hydroxyethyl]-6-[5-(difluoromethyl)-1,3,4-oxadiazol-2-yl]-2,3-dihydro-1H-isoindol-1-one] | 98
O=C1c2cc(-c3nnc(C(F)F)o3)ccc2CN1[C@H](c1ccccn1)[C@H](O)c1ccc(F)cc1 (racemic) [Example 141, 6-[5-(difluoromethyl)-1,3,4-oxadiazol-2-yl]-2-[(1RS,2RS)-2-(4-fluorophenyl)-2-hydroxy-1-(pyridin-2-yl)ethyl]-2,3-dihydro-1H-isoindol-1-one] | 99
O=C1c2cc(-c3nnc(C(F)F)o3)ccc2CN1[C@H](c1ccc(F)cc1)[C@H](O)c1ccc(C(F)(F)F)nc1 (racemic) [Example 142, 6-[5-(difluoromethyl)-1,3,4-oxadiazol-2-yl]-2-{(1RS,2RS)-1-(4-fluorophenyl)-2-hydroxy-2-[6-(trifluoromethyl)pyridin-3-yl]ethyl}-2,3-dihydro-1H-isoindol-1-one] | 100
O=C1c2cc(-c3nnc(C(F)F)o3)ccc2CN1[C@H](c1ccccn1)[C@H](O)c1ccccc1 (racemic) [Example 143, 6-[5-(difluoromethyl)-1,3,4-oxadiazol-2-yl]-2-[(1RS,2RS)-2-hydroxy-2-phenyl-1-(pyridin-2-yl)ethyl]-2,3-dihydro-1H-isoindol-1-one] | 100
O=C1c2cc(-c3nnc(C(F)F)o3)ccc2CN1[C@H](c1ccc(F)cn1)[C@H](O)c1ccccn1 (racemic) [Example 144, 6-[5-(difluoromethyl)-1,3,4-oxadiazol-2-yl]-2-[(1RS,2SR)-1-(5-fluoropyridin-2-yl)-2-hydroxy-2-(pyridin-2-yl)ethyl]-2,3-dihydro-1H-isoindol-1-one] | 100
O=C1c2cc(-c3nnc(C(F)F)o3)ccc2CN1[C@@H](c1ccccn1)[C@@H](O)c1cccc(F)c1 (racemic) [Example 145, 6-[5-(difluoromethyl)-1,3,4-oxadiazol-2-yl]-2-[(1SR,2SR)-2-(3-fluorophenyl)-2-hydroxy-1-(pyridin-2-yl)ethyl]-2,3-dihydro-1H-isoindol-1-one] | 99
O=C1c2cc(-c3nnc(C(F)F)o3)ccc2CN1[C@@H](c1ccc(F)cc1F)[C@@H](O)c1ccc(F)cc1 (racemic) [Example 146, 6-[5-(difluoromethyl)-1,3,4-oxadiazol-2-yl]-2-[(1SR,2SR)-1-(2,4-difluoro-phenyl)-2-(4-fluorophenyl)-2-hydroxy-ethyl]-2,3-dihydro-1H-isoindol-1-one] | 95
O=C1c2cc(-c3nnc(C(F)F)o3)ccc2CN1[C@H](c1ccc(F)cc1)[C@H](O)c1cccc(F)c1 (racemic) [Example 147, 6-[5-(difluoromethyl)-1,3,4-oxadiazol-2-yl]-2-[(1RS,2RS)-2-(3-fluorophenyl)-1-(4-fluorophenyl)-2-hydroxyethyl]-2,3-dihydro-1H-isoindol-1-one] | 99
O=C1c2cc(-c3nnc(C(F)F)o3)ccc2CN1[C@H](c1ccc(F)cc1)[C@@H](O)c1ccc(C(F)(F)F)nc1 (relative stereo) [Example 55, 6-[5-(difluoromethyl)-1,3,4-oxadiazol-2-yl]-2-{(1R*,2S)-1-(4-fluorophenyl)-2-hydroxy-2-[6-(trifluoromethyl)pyridin-3-yl]ethyl}-2,3-dihydro-1H-isoindol-1-one] | 98
